In patent EP0851902B1, “METHOD FOR COATING” (F2 Chemicals Ltd., priority 1995, dated 1997):

Test: Water solubility (typical physical properties, Table 1)
Type: physicochemical
Conditions: components of the 2% w/w solution of resin in perfluorohexane
Description: A solution of a fluoropolymer resin, prepared in accordance with details given in PCT Patent Application No. WO 94/05498 (and documents referred to therein), was prepared by dissolving sufficient of it, at room temperature in perfluorohexane ("FLUTEC" PP-1 from BNFL Fluorochemicals Ltd) to make a 2% w/w solution.

Which “Water Solubility” value does the source give for `FC(F)(F)C(F)(F)C(F)(F)C(F)(F)C(F)(F)C(F)(F)F` [SOLVENT, perfluorohexane] here?
Its value is “Insoluble”.
